Reference: paper PMC4957904, “A novel validated assay to support the discovery of new anti-malarial gametocytocidal agents” (Malaria Journal, 2016)
“Also recorded” adds a separate entry of the source.

What was measured:
[1] = system: late-stage (stage V) Plasmodium falciparum gametocytes; experiment: Cidal vs static activity assay by qPCR of late-stage gametocyte-specific mRNA (Pf77, ROM3, Pfg377); type: cell-based; conditions: for cidal vs static effect against late-stage gametocytes (mRNA profile T∞ vs T48) / increase in Ct values, constant drug pressure (T∞) / decrease in mRNA levels (fold change), constant drug pressure (T∞) / increase in Ct values after drug removal (T48): Pf77 coding gene; for cidal vs static effect against late-stage gametocytes (mRNA profile T∞ vs T48): 144 h, concentrations of Table 1; for increase in Ct values, constant drug pressure (T∞) / decrease in mRNA levels (fold change), constant drug pressure (T∞): drug present for 144 h (T∞); for increase in Ct values, constant drug pressure (T∞): 20 × IC50 (EX 2 × IC50); for decrease in mRNA levels (fold change), constant drug pressure (T∞): from Ct increase; for reduction of mRNA levels after drug removal (T48): drug present only 48 h (T48), from Ct values; for increase in Ct values after drug removal (T48): drug present 48 h, then 96 h without drug (T48)
Protocol: The in vitro cidal or static anti-malarial activity of a compound against the later stages of gametocyte development at day 15 was assessed by measuring mRNA levels in P.falciparum over 144 h following drug treatment (Fig. 1). Drug activity assays were performed once in two independent cultures in T-75 flasks (Corning, NY, USA). Late-stage gametocytes were incubated with drug and 6 % haematocrit over 48 h. […] IC50 values were obtained from Lelievre et al.. To remove drug from the medium, parasite cultures were harvested and washed two times with 25 ml of RPMI. After drug removal, the parasites were cultured for a further 96 h with complete culture medium either without or with drug, at the same concentration as the initial incubation, to evaluate the reversibility of the compound effect. Medium was changed daily and two samples of 1000 µl of culture at 0, 48, 96, and 144 h were taken, centrifuged and immediately stored at −80 °C for further analysis. An untreated culture was used as a […].
Fig. 1 Scheme showing the cidal vs static in vitro activity assay against stage V Plasmodium falciparum gametocytes. Gametocytes were incubated for 48 h with 20 × IC50. After drug was washed out, the parasites were cultured for 96 h with complete culture medium with drug (A) or without drug (B) to evaluate the reversibility of compound effects. Two samples at t = 0, 48, 96, and 144 h were taken for RNA extraction, cDNA synthesis and qPCR amplification. Comparison of mRNA levels of treated P. falciparum cultures upon removal of the drug was used to assess the cidal vs static activity
For RNA extraction, RNeasy Plus mini kit (Qiagen, Hilden, Germany) was used according to the standard protocol supplied by the manufacturer. cDNA synthesis and SYBR green qPCR were performed in duplicate following the protocol already published by Bahamontes-Rosa et al.. Melting curve analysis was always performed at the end of each assay as a specificity control.
Threshold cycle (Ct) values from the measurement of the cDNA samples were obtained in duplicate using the 7000 and the 7500 fast system Software (Applied Biosystem) and further analysed using an excel data sheet (Microsoft Corporation). The average value was taken as the result and only duplicate Ct values within ±1 Ct difference were accepted. Ct values were used to quantify the relative amount of target PCR product present in each reaction; values are inversely proportional to the amount of template in the sample.
Gene expression during gametocytogenesis was represented with an adaptation of the method described by Livak and Schmittgen as (Ctgene−Ct18S rRNA)Ttime […](Ctgene−Ct18S rRNA)T0, considering the expression at time 0 (T0) as the basal expression and using the 18S rRNA gene as housekeeping gene. Absolute quantification (direct comparison of Ct values) was considered the most appropriate method for the drug activity assays.
Two different treatments were performed in parallel, one with constant drug pressure throughout the experiment (T∞), 144 h in total, and another in which the gametocyte cultures were exposed to the compound for only 48 h, the drug was washed out and then cultured for a further 96 h in fresh complete culture medium (T48) (see Fig. 1).

[2] = system: 3D7A P. falciparum mature gametocytes; parameters: method as in PMID 22514702; conditions: ATP bioluminescence assay, read-out: P.f. gametocytes IC50; cited from earlier work
[3] = system: late-stage (stage V) Plasmodium falciparum gametocytes; experiment: Cidal vs static activity assay by qPCR of late-stage gametocyte-specific mRNA (Pf77, ROM3, Pfg377); type: cell-based; conditions: Pf77 coding gene; 48 h drug treatment only; TCMDC-125114 at 100 × IC50; CQ at 2, 20 and 125 × asexual IC50
[4] = cytotoxicity, short-term resazurin-based reductase assay; cited from earlier work
[5] = system: oocysts; parameters: method as in PMID 26317851; conditions: SMFA ex vivo, assayed at 2.5 µM; cited from earlier work

Structure (SMILES) | cidal vs static effect against late-stage gametocytes (mRNA profile T∞ vs T48) [1] | IC50 [2] | effect on Ct values at increasing concentrations, 48 h drug exposure (minimal gametocytocidal concentration) [3] | increase in Ct values, constant drug pressure (T∞) [1] | decrease in mRNA levels (fold change), constant drug pressure (T∞) [1] | reduction of mRNA levels after drug removal (T48) [1] | TOX50 [4] | reduction in the number of oocysts [5] | increase in Ct values after drug removal (T48) [1]
CCN(CC)CCCC(C)Nc1ccnc2cc(Cl)ccc12 (centres unmarked) [Chloroquine, reference compound] | did not affect mature gametocytes | 23.5 µM | no Ct increase | – | – | – | – | – | –
C[C@H]1[C@@H](O)O[C@@H]2O[C@@]3(C)CC[C@H]4[C@H](C)CC[C@@H]1[C@@]24OO3 [Dihydroartemisinin, reference compound] | static | 3.56 µM | – | at least 5 Ct | ≥ 100 fold | less than tenfold | >50 µM | – | –
CC[C@H](C)[C@H](NC(=O)[C@H]([C@@H](C)CC)N(C)C(C)=O)C(=O)N[C@H](C(=O)N[C@@H](CC(C)C)C(=O)[C@@]1(C)CO1)[C@@H](C)O [Epoxomicin, reference compound] | static | 0.0005 µM | – | at least 5 Ct | ≥ 100 fold | less than tenfold | 0.003 µM | – | –
CN(C)c1ccc2nc3ccc(=[N+](C)C)cc-3sc2c1 [Methylene blue, reference compound] | cidal | 0.49 µM | – | – | – | – | 6.52 µM | – | –
CNC(=S)NN=C(C)c1ccccn1 [TCMDC-123475] | prolonged reduction in mRNA levels only when the drug was continuously present | 0.0098 µM | – | 7 Ct | more than 100 fold | – | >25 µM | – | –
Cc1[nH]c2ccccc2c1C(=O)C(C)Sc1n[nH]c(-c2ccccc2Br)n1 (centres unmarked) [TCMDC-125114] | prolonged reduction in mRNA levels only when the drug was continuously present | 0.13 µM | cidal activity | 7 Ct | more than 100 fold | – | >50 µM | 100% | –
COc1cccc(NC(=O)[C@H](C(C)C)n2c(=O)[nH]c3ccccc3c2=O)c1 [TCMDC-125133] | prolonged reduction in mRNA levels only when the drug was continuously present | 0.54 µM | – | 7 Ct | more than 100 fold | – | >50 µM | 100% | –
CC(C)c1ccc(NC(=S)NN=Cc2ccccn2)cc1 [TCMDC-125520] | static; also recorded: prolonged reduction in mRNA levels only when the drug was continuously present | 0.0098 µM | – | ~5 Ct | ca. 100 fold | less than tenfold | 12.80 µM | – | ≤ 2 Ct
Br.Cc1ccnc(Nc2nc(-c3ccccn3)cs2)c1 [TCMDC-125769] | static; also recorded: prolonged reduction in mRNA levels only when the drug was continuously present | 0.04 µM | – | ~5 Ct | ca. 100 fold | less than tenfold | >25 µM | – | ≤ 2 Ct
CN1CCOc2ccc(Nc3nnc(-c4cccc(-c5cccnc5)c4)o3)cc2C1 [TCMDC-134278] | – | > 5 µM | – | – | – | – | 19.95 µM | – | –
CCNCc1cccc(-c2ccc3ccnc(N)c3c2)c1 [TCMDC-136869] | – | 1.66 µM | – | – | – | – | 12.59 µM | – | –
C=C(NC(=O)C(=C)NC(=O)c1csc(C2=N[C@@H]3c4csc(n4)[C@H]4NC(=O)c5csc(n5)[C@H]([C@](C)(O)[C@@H](C)O)NC(=O)[C@H]5CSC(=N5)/C(=C/C)NC(=O)[C@H]([C@@H](C)O)NC(=O)c5csc(n5)[C@]3(CC2)NC(=O)[C@H](C)NC(=O)C(=C)NC(=O)[C@H](C)NC(=O)[C@H]([C@@H](C)CC)N[C@@H]2C=Cc3c([C@H](C)O)cc(nc3[C@H]2O)C(=O)O[C@@H]4C)n1)C(N)=O [Thiostrepton, reference compound] | static | 0.9 µM | – | at least 5 Ct | ≥ 100 fold | less than tenfold | – | – | –
